# Literature values in patent US20170000799A1, “ORAL PHARMACEUTICAL COMPOSITION” (LABORATORIOS DEL DR. ESTEVE, S.A., priority 2013, published 2017).
# Conditions: many organic solvents, including ethanol
compound,measurement,value
"O=C(NC[C@H]1CN(c2ccc(N3CCOCC3=O)cc2)C(=O)O1)c1ccc(Cl)s1 [Rivaroxaban, 5-Cloro-N-[2-oxo-3-[4-(3-oxomorpholin-4-yl)phenyl]-1,3-oxazolidin-5(S)-ylmethyl]-thiophene-2-carboxamide]",solubility in organic solvents,low solubility
